Results from patent US20060069132A1, “Azolecarboxamide herbicides” (priority 2004, published 2006).

What was measured:
[1] = system: blackgrass; assay: Test B postemergence herbicide test; type: in vivo, Alopecurus myosuroides; conditions: scale 0 (no effect) to 100 (complete control); for Plant response rating, Blackgrass: Postemergence, visual rating after 13 to 15 days; for Blackgrass plant response rating: postemergence, visual rating
In short: (§1)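 Scale 0–100: zero equals no visible effect, 100 complete control, judged by eye relative to controls. Timing: 13 to 15 days in greenhouse post-treatment. Growth stage at spraying: two leaves (paddy) or one to four leaves, 2–18 cm (postemergence).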

[2] = system: large crabgrass; assay: Test A pre-/postemergence herbicide test; type: in vivo, Digitaria sanguinalis
In short: (§2)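 Greenhouse injury scoring (0–100, complete control = 100) at approximately ten days follows simultaneous pre- and postemergence application. Soil received a directed spray after seeding; seedlings of 2–10 cm at the one- to two-leaf stage were sprayed to runoff.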

[3] = system: cocklebur; assay: Test C pre-/postemergence herbicide test; type: in vivo, Xanthium strumarium; conditions: for Cocklebur plant response rating: 500 g ai/ha
In short: (§3)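 Pre/post spray; non-phytotoxic solvent + surfactant. Post-timing 1–4 leaves, 2–18 cm. Read-out: visual % control vs untreated, day 12–14, greenhouse.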

[4] = system: ducksalad; assay: Test C flooded paddy test; type: in vivo, Heteranthera limosa; conditions: for Plant response rating, Ducksalad: 500 g ai/ha, visual rating after 12 to 14 days
[5] = system: common (oilseed) sunflower; assay: Test C pre-/postemergence herbicide test; type: in vivo, Helianthus annuus; conditions: for Plant response rating (0 = no effect, 100 = complete control), Sunflower / Plant response rating, Sunflower: preemergence; for Sunflower plant response rating: Preemergence, scale 0 to 100, 0 no effect, 100 complete control
In short: as §3

[6] = system: barnyardgrass; assay: Test A pre-/postemergence herbicide test; type: in vivo, Echinochloa crus-galli
In short: as §2

[7] = system: giant foxtail; assay: Test A pre-/postemergence herbicide test; type: in vivo, Setaria faberi
In short: as §2

[8] = system: ducksalad; assay: Test B flooded paddy test; type: in vivo, Heteranthera limosa; conditions: 1000 g ai/ha, visual rating, scale 0 to 100 (0 no effect, 100 complete control), 13 to 15 days
In short: as §1

[9] = system: corn; assay: Test C pre-/postemergence herbicide test; type: in vivo, Zea mays
In short: as §3

[10] = system: woolly cupgrass; assay: Test C pre-/postemergence herbicide test; type: in vivo, Eriochloa villosa
In short: as §3

[11] = Postemergence, 500 g ai/ha, 0 to 100 scale, 0 no effect, 100 complete control
[12] = Postemergence, 2000 g ai/ha, 0 to 100 scale, 0 no effect, 100 complete control
[13] = Preemergence, 500 g ai/ha, visual rating, 0 to 100 scale (0 no effect, 100 complete control)
[14] = Preemergence, 2000 g ai/ha, visual rating, 0 to 100 scale (0 no effect, 100 complete control)
[15] = 125 g ai/ha, scale 0 (no effect) to 100 (complete control), visual, 12 to 14 days, preemergence
[16] = 250 g ai/ha, scale 0 to 100 (0 no effect, 100 complete control), visual, 12 to 14 days, preemergence
[17] = Postemergence, 250 g ai/ha, scale 0 to 100, 0 no effect, 100 complete control
[18] = Preemergence, scale 0 to 100, 0 no effect, 100 complete control
[19] = postemergence, 125 g ai/ha, scale 0 to 100
[20] = postemergence, 62 g ai/ha, scale 0 to 100
[21] = 62 g ai/ha, scale 0 to 100 (0 no effect, 100 complete control)
[22] = 125 g ai/ha, scale of 0 to 100, 0 is no effect, 100 is complete control
[23] = 250 g ai/ha, scale of 0 to 100, 0 is no effect, 100 is complete control
[24] = scale 0 to 100 (0 no effect, 100 complete control)
[25] = Postemergence, 500 g ai/ha, scale 0 to 100
[26] = Preemergence, 500 g ai/ha, scale 0 to 100, 0 no effect, 100 complete control
[27] = Preemergence, 2000 g ai/ha, 0 to 100 scale, 0 no effect, 100 complete control
[28] = 125 g ai/ha, scale 0 (no effect) to 100 (complete control), visual, 12 to 14 days
[29] = preemergence, 500 g ai/ha, visual injury, 0 to 100 scale (0 no effect, 100 complete control)
[30] = 62 g ai/ha, preemergence, scale 0 to 100
[31] = 250 g ai/ha, scale 0-100, preemergence
[32] = 500 g ai/ha, scale 0 to 100 (0 no effect, 100 complete control), visual, 12 to 14 days, preemergence

## CC(=NO)c1cccc(NC(=O)c2cc(C(C)(C)C)nn2CCF)c1 [Compound 115]
[1]; 500 g ai/ha
  Plant response rating, Blackgrass: 20
[1]; 125 g ai/ha
  Blackgrass plant response rating: 10
[2]; [11]
  Crabgrass, Large plant response rating: 75
[2]; [12]
  Plant response rating, Crabgrass, Large: 80
[2]; [13]
  Crabgrass, Large plant response rating: 100
[2]; [14]
  Crabgrass, Large plant response rating: 100
[3]; 62 g ai/ha, preemergence
  Plant response rating (0 = no effect, 100 = complete control), Cocklebur: 20
[3]; [15]
  Plant response rating, Cocklebur: 40
[3]; [16]
  Plant response rating, Cocklebur: 50
[3]; Postemergence, scale 0 to 100
  Cocklebur plant response rating: 100
[3]; [17]
  Plant response rating, Cocklebur: 100
[3]; [18]
  Cocklebur plant response rating: 100
[3]; [19]
  Plant response rating, Cocklebur: 90
[3]; [20]
  Plant response rating, Cocklebur: 90
[4]; [21]
  Ducksalad plant response rating: 30
[4]; [22]
  Ducksalad plant response rating: 75
[4]; [23]
  Ducksalad plant response rating: 85
[4]; [24]
  Plant response rating, Ducksalad: 90
[5]; 62 g ai/ha
  Plant response rating (0 = no effect, 100 = complete control), Sunflower: 0
[5]; 500 g ai/ha
  Sunflower plant response rating: 10
[6]; [11]
  Barnyardgrass plant response rating: 70
[6]; [12]
  Plant response rating, Barnyardgrass: 80
[6]; [13]
  Barnyardgrass plant response rating: 70
[6]; [14]
  Barnyardgrass plant response rating: 85
[7]; [11]
  Foxtail, Giant plant response rating: 60
[7]; [12]
  Plant response rating, Foxtail, Giant: 80
[7]; [13]
  Foxtail, Giant plant response rating: 50
[7]; [14]
  Foxtail, Giant plant response rating: 80
[8]
  Ducksalad plant response rating: 90
[9]; 62 g ai/ha, preemergence
  Plant response rating (0 = no effect, 100 = complete control), Corn: 10
[9]; [15]
  Plant response rating, Corn: 10
[9]; [16]
  Plant response rating, Corn: 20
[9]; [25]
  Corn plant response rating: 40
[9]; [26]
  Corn plant response rating: 30
[9]; [19]
  Plant response rating, Corn: 40
[9]; [20]
  Plant response rating, Corn: 40
[10]; 62 g ai/ha, preemergence
  Plant response rating (0 = no effect, 100 = complete control), Cupgrass, Woolly: 20
[10]; [15]
  Plant response rating, Cupgrass, Woolly: 30
[10]; [16]
  Plant response rating, Cupgrass, Woolly: 80
[10]; [25]
  Cupgrass, Woolly plant response rating: 70
[10]; [17]
  Plant response rating, Cupgrass, Woolly: 70
[10]; [26]
  Cupgrass, Woolly plant response rating: 90
[10]; [19]
  Plant response rating, Cupgrass, Woolly: 70
[10]; [20]
  Plant response rating, Cupgrass, Woolly: 50

## CCCN1CCc2c(NC(=O)c3cc(C(C)(C)C)nn3CC)cccc2C1=O [Compound 65]
[1]; 500 g ai/ha
  Plant response rating, Blackgrass: 10
[1]; 125 g ai/ha
  Blackgrass plant response rating: 10
[2]; [11]
  Plant response rating, Crabgrass, Large: 30
[2]; [12]
  Plant response rating, Crabgrass, Large: 60
[2]; [13]
  Crabgrass, Large plant response rating: 95
[2]; [27]
  Crabgrass, Large plant response rating: 100
[3]; 62 g ai/ha, preemergence
  Plant response rating (0 = no effect, 100 = complete control), Cocklebur: 0
[3]; [15]
  Plant response rating, Cocklebur: 0
[3]; [16]
  Plant response rating, Cocklebur: 0
[3]; [18]
  Cocklebur plant response rating: 0
[4]; [21]
  Ducksalad plant response rating: 15
[4]; [22]
  Ducksalad plant response rating: 45
[4]; [23]
  Ducksalad plant response rating: 75
[4]; [24]
  Plant response rating, Ducksalad: 85
[5]; 62 g ai/ha
  Plant response rating (0 = no effect, 100 = complete control), Sunflower: 0
[5]; [28]
  Plant response rating, Sunflower: 0
[5]; 500 g ai/ha
  Sunflower plant response rating: 0
[6]; [11]
  Plant response rating, Barnyardgrass: 45
[6]; [12]
  Plant response rating, Barnyardgrass: 75
[6]; [13]
  Barnyardgrass plant response rating: 55
[6]; [27]
  Barnyardgrass plant response rating: 70
[7]; [11]
  Plant response rating, Foxtail, Giant: 30
[7]; [12]
  Plant response rating, Foxtail, Giant: 55
[7]; [13]
  Foxtail, Giant plant response rating: 40
[7]; [27]
  Foxtail, Giant plant response rating: 80
[8]
  Ducksalad plant response rating: 90
[9]; 62 g ai/ha, preemergence
  Plant response rating (0 = no effect, 100 = complete control), Corn: 0
[9]; [15]
  Plant response rating, Corn: 0
[9]; [16]
  Plant response rating, Corn: 10
[9]; [26]
  Corn plant response rating: 20
[10]; 62 g ai/ha, preemergence
  Plant response rating (0 = no effect, 100 = complete control), Cupgrass, Woolly: 0
[10]; [15]
  Plant response rating, Cupgrass, Woolly: 0
[10]; [16]
  Plant response rating, Cupgrass, Woolly: 10
[10]; [26]
  Cupgrass, Woolly plant response rating: 10

## CCOC(=O)c1cccc(NC(=O)c2cc(C(C)(C)C)nn2CC)c1C [Compound 88]
[1]; 500 g ai/ha
  Plant response rating, Blackgrass: 0
[1]; 125 g ai/ha
  Blackgrass plant response rating: 0
[2]; [11]
  Crabgrass, Large plant response rating: 85
[2]; [12]
  Plant response rating, Crabgrass, Large: 95
[2]; [13]
  Crabgrass, Large plant response rating: 45
[2]; [27]
  Crabgrass, Large plant response rating: 100
[3]; 62 g ai/ha, preemergence
  Plant response rating (0 = no effect, 100 = complete control), Cocklebur: 0
[3]; [15]
  Plant response rating, Cocklebur: 0
[3]; [16]
  Plant response rating, Cocklebur: 0
[3]; [18]
  Cocklebur plant response rating: 0
[4]; [21]
  Ducksalad plant response rating: 0
[4]; [22]
  Ducksalad plant response rating: 15
[4]; [23]
  Ducksalad plant response rating: 40
[4]; [24]
  Plant response rating, Ducksalad: 75
[5]; 62 g ai/ha
  Plant response rating (0 = no effect, 100 = complete control), Sunflower: 0
[5]; [28]
  Plant response rating, Sunflower: 0
[5]; 500 g ai/ha
  Sunflower plant response rating: 0
[6]; [11]
  Barnyardgrass plant response rating: 85
[6]; [12]
  Plant response rating, Barnyardgrass: 100
[6]; [13]
  Barnyardgrass plant response rating: 75
[6]; [27]
  Barnyardgrass plant response rating: 90
[7]; [11]
  Foxtail, Giant plant response rating: 20
[7]; [12]
  Plant response rating, Foxtail, Giant: 60
[7]; [13]
  Foxtail, Giant plant response rating: 55
[7]; [27]
  Foxtail, Giant plant response rating: 90
[8]
  Ducksalad plant response rating: 80
[9]; 62 g ai/ha, preemergence
  Plant response rating (0 = no effect, 100 = complete control), Corn: 0
[9]; [15]
  Plant response rating, Corn: 5
[9]; [16]
  Plant response rating, Corn: 5
[9]; [26]
  Corn plant response rating: 60
[10]; 62 g ai/ha, preemergence
  Plant response rating (0 = no effect, 100 = complete control), Cupgrass, Woolly: 20
[10]; [15]
  Plant response rating, Cupgrass, Woolly: 30
[10]; [16]
  Plant response rating, Cupgrass, Woolly: 80
[10]; [26]
  Cupgrass, Woolly plant response rating: 90

## CCc1nn(C(C)(C)C)cc1C(=O)Nc1cc(C(=O)N(CC)CC)ccc1F [Compound 223]
[1]; 125 g ai/ha
  Blackgrass plant response rating: 0
[1]; 500 g ai/ha
  Blackgrass plant response rating: 0
[2]; [11]
  Crabgrass, Large plant response rating: 20
[2]; [12]
  Plant response rating, Crabgrass, Large: 25
[2]; [14]
  Crabgrass, Large plant response rating: 90
[2]; [29]
  Crabgrass, Large plant response rating: 90
[3]; [30]
  Plant response rating, Cocklebur: 0
[3]; [15]
  Plant response rating, Cocklebur: 0
[3]; [31]
  Plant response rating, Cocklebur: 0
[3]; [18]
  Cocklebur plant response rating: 0
[4]; [21]
  Ducksalad plant response rating: 0
[4]; 125 g ai/ha, scale 0 to 100 (0 no effect, 100 complete control)
  Ducksalad plant response rating: 0
[4]; [23]
  Ducksalad plant response rating: 25
[4]; [24]
  Plant response rating, Ducksalad: 55
[5]; 62 g ai/ha, scale 0 to 100
  Plant response rating, Sunflower: 0
[5]; 250 g ai/ha, scale 0-100
  Plant response rating, Sunflower: 0
[5]; 500 g ai/ha, scale 0 to 100 (0 no effect, 100 complete control), visual, 12 to 14 days
  Plant response rating, Sunflower: 30
[6]; [11]
  Barnyardgrass plant response rating: 10
[6]; [12]
  Plant response rating, Barnyardgrass: 55
[6]; [14]
  Barnyardgrass plant response rating: 80
[6]; [29]
  Barnyardgrass plant response rating: 55
[7]; [11]
  Foxtail, Giant plant response rating: 10
[7]; [12]
  Plant response rating, Foxtail, Giant: 10
[7]; [14]
  Foxtail, Giant plant response rating: 90
[7]; [29]
  Foxtail, Giant plant response rating: 75
[8]
  Ducksalad plant response rating: 90
[9]; [30]
  Plant response rating, Corn: 0
[9]; [15]
  Plant response rating, Corn: 0
[9]; [31]
  Plant response rating, Corn: 5
[9]; [32]
  Plant response rating, Corn: 50
[10]; [30]
  Plant response rating, Cupgrass, Woolly: 0
[10]; [15]
  Plant response rating, Cupgrass, Woolly: 10
[10]; [32]
  Plant response rating, Cupgrass, Woolly: 80
